These are literature values, as cited in article PMC8445767 (Bioorganic Chemistry, 2021).

What is called IC50 is the point on the concentration scale where inhibition reaches its midpoint.

Data set [1] relates to herpes simplex virus type 1. As to conditions: read-out: IC50 against herpes simplex virus type 1.
In data set [2] the test system is herpes simplex virus type 1. To be noted: read-out: IC50 against herpes simplex virus type 1. This is another data set of the same source.

Like-named read-outs stand apart in the source and are kept apart here.

Aspergilli peptide D [XI]: the IC50 in data set [1] was 9.5 µM.

In the case of Simplicilliumtide J [XIV], the IC50 in data set [2] was 14 µM.
